“Also recorded” adds a separate entry of the source. Where two headings read alike, the source gives them in different places.
Tests used:
Npra, Hsl, Fas, Acc2 = assay: Real-time PCR of lipid metabolism genes in obese mice livers; format: in vivo
Method: (§1) After induction of obesity in C57BL/6 male mice fed with the high-fat diet for twelve weeks, they were treated daily with ASP (50 mg/kg) via oral gavage for seven weeks in vivo study. C57BL/6 mice aortae were used for ex vivo studies. Endothelial cells, HepG2 and primary adipocytes were used for in vitro studies. Vascular function was determined by wire myograph. H&E staining was employed for histological examination. Oil Red O staining was used to determine lipid droplets in tissues and cells. DHE and MitoSOX staining were used to detect ROS levels. QPCR, aortic en-face immunofluorescence staining, and Western blotting were used to analyze mRNA and protein expressions. ARE binding activity was determined by Dual luciferase reporter assay. Small interfering (si)RNA of Nrf2 and HO-1, inhibitors of Nrf2 (ML385, Cat. No.: HY-100523) and HO-1 (OB-24, HY-118487) were used to elucidate the mechanistic pathway of ASP's action.

ROS [1] = assay: Ex vivo DHE staining of ROS in IL-1β-treated aortas; set-up: species or system mice
Method: (§2) After induction of obesity in C57BL/6 male mice fed with high fat diet for twelve weeks, they were treated daily with ASP (50 mg/kg) via oral gavage for seven weeks in vivo study. C57BL/6 mice aortae were used for ex vivo study and endothelial cells were used for in vitro study. Vascular function was determined by wire myograph. DHE and MitoSOX staining were used to detect ROS levels. QPCR, aortic en-face immunofluorescence staining, and Western blotting were used to analyze mRNA and protein expressions. Small interfering (si)RNA of Nrf2 and HO-1, inhibitors of Nrf2 (ML385, Cat. No.: HY-100523) and HO-1 (OB-24, HY-118487) were used to elucidate the mechanistic pathway of ASP's action.
as §1

Nrf2 [2] = assay: Nrf2 nuclear translocation in endothelial cells; format: cell-based
Method: as §2, §1

HepG2 cells = assay: ATP production in PA-treated HepG2 cells; format: cell-based
Method: as §1

ROS [3] = assay: DHE staining of ROS in obese mice aortic sections; format: in vivo; details: ASP 50 mg/kg oral gavage daily for seven weeks
Method: as §2
as §1, with “QPCR, aortic en-face immunofluorescence staining, and Western blotting were used to analyze mRNA and protein expressions.” left out, “Small interfering (si)RNA of Nrf2 and HO-1, inhibitors of Nrf2 (ML385, Cat. No.: HY-100523) and HO-1 (OB-24, HY-118487) were used to elucidate the mechanistic pathway of ASP's action.” left out

Nrf2 [4] = assay: Nrf2 nuclear translocation in primary adipocytes (immunofluorescence); format: cell-based, mice; details: 40 μmol/L ASP for 24 hours
Method: Primary adipocytes were treated with 40 μmol/L ASP (FIG. 22A) or different doses of ASP (FIG. 22B) for 24 hours. […] Scale bar, 50 μm (FIG. 22B). Data represent means±SEM of 4 experiments. P values were determined using One-way ANOVA. *p<0.05.
as §1

HO-1 = assay: Real-time PCR of HO-1 in obese mice aortas; format: in vivo
Method: as §2
as §1, with “QPCR, aortic en-face immunofluorescence staining, and Western blotting were used to analyze mRNA and protein expressions.” left out, “Small interfering (si)RNA of Nrf2 and HO-1, inhibitors of Nrf2 (ML385, Cat. No.: HY-100523) and HO-1 (OB-24, HY-118487) were used to elucidate the mechanistic pathway of ASP's action.” left out

[5] = tested on: perirenal adipose tissues; assay: Weight and sizes of perirenal adipose tissues in obese mice; format: in vivo
Method: as §1

SDHC = assay: Real-time PCR of SDHC in PA-treated HepG2 cells; format: cell-based; details: PA-treated HepG2 cells when Nrf2 is inhibited
Method: as §1

endothelial cells = assay: ROS level in endothelial cells; format: cell-based
Method: as §2
as §1, with “QPCR, aortic en-face immunofluorescence staining, and Western blotting were used to analyze mRNA and protein expressions.” left out, “Small interfering (si)RNA of Nrf2 and HO-1, inhibitors of Nrf2 (ML385, Cat. No.: HY-100523) and HO-1 (OB-24, HY-118487) were used to elucidate the mechanistic pathway of ASP's action.” left out

C57BL/6 mice aortae = assay: Ex vivo wire myograph, IL-1β-impaired EDRs in mouse aortas; details: for EDRs: IL-1β
Method: as §2, §1

[6] = tested on: Ho-1, Sirt1, Sirt3, Sirt6 and Sod2; assay: Real-time PCR of Nrf2 downstream genes in obese mice livers; format: in vivo
Method: as §1

FAS, ACC2, SREBP1C, HSL = assay: Real-time PCR of lipid metabolism genes in PA-treated HepG2 cells; format: cell-based
Method: as §1

Asperuloside
mRNA expression levels of fatty acid synthesis-related genes, including Fas and Acc2 (Npra, Hsl, Fas, Acc2): downregulated
mRNA expression levels of lipolysis-related genes, Npra and Hsl (Npra, Hsl, Fas, Acc2): increases the mRNA expression levels of lipolysis-related genes, Npra and Hsl
ROS generation (ROS [1]; IL-1β, HO-1-inhibited aortas): fails to rescue the impairment (FIG. 2C) or decrease ROS generation
IL-1β-induced ROS overproduction (ROS [1]; ML385-treated aortas): fails to reverse impairment (FIG. 4E) or suppress IL-1β-induced ROS overproduction
IL-1β-induced ROS overexpression (DHE staining) (ROS [1]; endothelial Nrf2 knocked down): fails to suppress IL-1β-induced ROS overexpression
Nrf2 nuclear expression (western blotting) (Nrf2 [2]; 40 μmol/L ASP, endothelial cells under basal conditions): increases Nrf2 nuclear expressions
Nrf2 nuclear translocation (western blotting) (Nrf2 [2]; endothelial cells): dose-dependently stimulates Nrf2 nuclear translocation; also recorded: increased nuclear Nrf2
production of ATP (HepG2 cells): restores the decreased production of ATP
production of ATP (HepG2 cells; inhibition of Nrf2): inhibition of Nrf2 eliminates the rescue effect of ASP
ROS generation / oxidative stress (DHE staining) (ROS [3]): suppresses elevated ROS generation; also recorded: suppressed oxidative stress
Nrf2 nuclear translocation (Nrf2 [4]): stimulates Nrf2 nuclear translocation in adipocytes
increase of HO-1 expression (HO-1; obese mice aortae, ASP 50 mg/kg oral gavage daily for seven weeks): about 1.5 fold
HO-1 mRNA expression level (HO-1; obese mice aortas, real-time PCR): increases mRNA expression level of Nrf2 (FIG. 1G) and HO-1
ratio of perirenal adipose tissues to body weight ([5]; obese mice): decreased
sizes of adipocytes (H&E staining) ([5]; obese mice): remarkably reduces the sizes of adipocytes
decrease of perirenal adipose tissues in weight and sizes, average ([5]; worded as embodiment, cf. FIGS. 14A-14B): about 35%
mRNA expression levels of SDHC (SDHC): fails to upregulate the mRNA expression levels of SDHC
ROS level (endothelial cells; HO-1-silencing cells): fails to decrease ROS level
oxidative stress (endothelial cells; endothelial cells): suppresses oxidative stress
EDRs (C57BL/6 mice aortae; ML385-treated aortas): fails to reverse impairment
EDRs (C57BL/6 mice aortae; endothelial-cell specific Nrf2 knockdown murine aortas): fails to reverse the impairment
acetylcholine-induced EDRs (C57BL/6 mice aortae; IL-1β-treated aortas, ex vivo): prevents IL-1-induced impairment in acetylcholine-induced EDRs; also recorded: prevents IL-1β-impaired EDRs; also recorded: rescued IL-1β-impairs EDRs
acetylcholine-induced EDRs (C57BL/6 mice aortae; IL-1β-treated, HO-1-inhibited (OB-24) aortas): fails to rescue the impairment; also recorded: failed to prevent endothelial dysfunction in HO-1 inhibited aortae
gene expressions of Ho-1, Sirt1, Sirt3, Sirt6 and Sod2 ([6]; obese mice livers): upregulates gene expressions of Ho-1, Sirt1, Sirt3, Sirt6 and Sod2
increase of HO-1 mRNA expression in the liver ([6]; worded as embodiment, cf. FIG. 13C): about 2.5 fold
mRNA levels of FAS, ACC2 and SREBP1C (FAS, ACC2, SREBP1C, HSL; Nrf2-inhibited HepG2 cells): fails to decrease its expression levels
PA-stimulated overexpression of mRNA levels of FAS, ACC2 and SREBP1C (FAS, ACC2, SREBP1C, HSL; PA-treated HepG2 cells): inhibited by ASP treatment

Source: patent US20250205265A1, “ASPERULOSIDE AS AN AGENT FOR IMPROVING VASCULAR AND METABOLIC FUNCTION IN OBESITY: ROLE OF NRF2 ACTIVATION” (The Chinese University of Hong Kong, priority 2023, published 2025)
